The values below come from PubChem BioAssay (NCI).

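1) Cells in 96-well plates. 2) Compound, 48 h, 5 concentrations. 3) Linear interpolation between surrounding doses. 4) Unreached endpoint = highest concentration. Abbreviation: GI50, concentration required for 50% inhibition of growth. Definition used: TGI = concentration required for complete inhibition of growth.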 Where only a bound is given, the exact number is not on record here.

Test systems include HCT-15 colon; A498 renal; RPMI-8226 leukemia; MDA-MB-231 breast; OVCAR-8 ovarian; CCRF-CEM leukemia; SN12C renal; SF-295 CNS; SR leukemia; NCI-H522 lung.
Assay in all cases: NCI anticancer screen, dose series, 48 h

Take `COc1ccc(/C=C/c2cc(O)cc(OC3OC(CO)C(O)C(O)C3O)c2)cc1O` (stereo unspecified): the TGI with HCT-15 colon, with A498 renal, with RPMI-8226 leukemia, in the assay with MDA-MB-231 breast, in the assay on OVCAR-8 ovarian and in the assay on CCRF-CEM leukemia was above 100 µM in each case. Further, the TGI in the assay with SN12C renal, in the assay with SF-295 CNS, in the assay with SR leukemia and with NCI-H522 lung was above 100 µM in each case.
`Nc1ccc(C2(c3ccc(N)cc3)C3CC4CC(C3)CC2C4)cc1`: the TGI in the assay with HCT-15 colon is 37.2 µM; with A498 renal it was 41.3 µM; in the assay with MDA-MB-231 breast it was 37.5 µM; in the assay on OVCAR-8 ovarian it was 35.5 µM; in the assay with CCRF-CEM leukemia, 25.3 µM; in the assay with SN12C renal it was 45.7 µM. Moreover, the TGI with SF-295 CNS was 20.3 µM; with SR leukemia it was above 100 µM; in the assay with NCI-H522 lung it was 30.5 µM.
For `O=C(N[C@H](CO)[C@H](O)c1ccc([N+](=O)[O-])cc1)C(Cl)Cl`, the TGI in the assay on HCT-15 colon, with A498 renal, in the assay on RPMI-8226 leukemia, in the assay with MDA-MB-231 breast, in the assay with OVCAR-8 ovarian and in the assay on CCRF-CEM leukemia was above 100 µM each time. In addition, the TGI in the assay with SN12C renal, in the assay on SF-295 CNS, with SR leukemia and with NCI-H522 lung was above 100 µM in each case.
Turning to `OCC1NC(CO)C(O)C1O` (stereo unspecified), the TGI with HCT-15 colon, in the assay with A498 renal, in the assay on RPMI-8226 leukemia, in the assay with MDA-MB-231 breast, with OVCAR-8 ovarian and in the assay with CCRF-CEM leukemia was above 100 µM each time. The TGI with SN12C renal, in the assay on SF-295 CNS and in the assay with SR leukemia was above 100 µM each time.
For the molecule `COc1ncnc2c(Cl)c(C(O)c3ccccc3)c(Cl)cc12` (stereo unspecified), the TGI in the assay on HCT-15 colon was above 100 µM; with A498 renal, 53.2 µM; with RPMI-8226 leukemia, 66.4 µM; in the assay with MDA-MB-231 breast, 58.6 µM; in the assay on OVCAR-8 ovarian, above 100 µM; in the assay on SN12C renal, 86.8 µM. The TGI in the assay with SF-295 CNS was 68.2 µM; in the assay on SR leukemia, 22.7 µM; with NCI-H522 lung it was above 100 µM.
`CCOP(=O)(OCC)C(Cc1c[nH]c2ccccc12)C(=O)O` (stereo unspecified): the TGI in the assay on HCT-15 colon, in the assay on A498 renal, with RPMI-8226 leukemia, with MDA-MB-231 breast, in the assay with OVCAR-8 ovarian and in the assay with CCRF-CEM leukemia was above 100 µM in each case. Besides, the TGI with SN12C renal, in the assay on SF-295 CNS, in the assay with SR leukemia and in the assay with NCI-H522 lung was above 100 µM in each case.
`O=S1(=O)C[C@H](NCc2ccccc2)[C@H](NCc2ccccc2)C1`: the TGI is 86.7 µM in the assay with RPMI-8226 leukemia; above 100 µM with MDA-MB-231 breast; above 100 µM in the assay on OVCAR-8 ovarian; above 100 µM in the assay with CCRF-CEM leukemia; above 100 µM in the assay with SN12C renal; above 100 µM in the assay with SF-295 CNS. Besides, the TGI with SR leukemia is above 100 µM; in the assay with NCI-H522 lung it was 68.2 µM.
In the case of `O=Nn1c2ccccc2c2ccccc21`, the TGI is above 100 µM with HCT-15 colon; 75.7 µM in the assay on A498 renal; above 100 µM in the assay on RPMI-8226 leukemia; above 100 µM in the assay with MDA-MB-231 breast; above 100 µM in the assay with OVCAR-8 ovarian; above 100 µM with CCRF-CEM leukemia. In addition, the TGI in the assay on SN12C renal, in the assay on SF-295 CNS and in the assay on NCI-H522 lung was above 100 µM each time.
Turning to `CC(C)N(CCNc1nc(C(Cl)(Cl)Cl)nc2cc(Cl)ccc12)C(C)C`, the GI50 with HCT-15 colon is 1120 nM; in the assay on A498 renal, 1270 nM; in the assay with RPMI-8226 leukemia, 1190 nM; in the assay on MDA-MB-231 breast, 1100 nM; in the assay on OVCAR-8 ovarian, 1830 nM; with SN12C renal, 1690 nM. Besides, the GI50 is 1730 nM with SF-295 CNS, 926 nM in the assay on SR leukemia and 1160 nM in the assay on NCI-H522 lung. The TGI turned out to be 2.48 µM with HCT-15 colon; 2.66 µM in the assay on A498 renal; 3.18 µM with RPMI-8226 leukemia; 2.46 µM in the assay with MDA-MB-231 breast; 3.4 µM in the assay with OVCAR-8 ovarian; 3.76 µM in the assay with SN12C renal. In addition, the results for the TGI in the assay with SF-295 CNS, in the assay on SR leukemia and with NCI-H522 lung were 3.66 µM, 3.11 µM and 2.63 µM, respectively.
For the molecule `CCOC(=O)CCCc1cc(=O)c2c(C)c3[nH]c4ccc(Cl)cc4c3c(C)c2[nH]1`, the TGI in the assay on HCT-15 colon was above 100 µM; with A498 renal, 36.5 µM; in the assay with RPMI-8226 leukemia, above 100 µM; in the assay with MDA-MB-231 breast, 69.7 µM; with OVCAR-8 ovarian, 59.8 µM; with CCRF-CEM leukemia, above 100 µM. Moreover, the TGI in the assay on SN12C renal is 95.3 µM; in the assay on SF-295 CNS it was 67 µM; in the assay with SR leukemia, above 100 µM.
As for `Fc1ccc(C2CC(c3cccc(Nc4ccncc4)c3)=NN2c2ccccc2)cc1` (stereo unspecified), the GI50 in the assay on HCT-15 colon is 1680 nM; in the assay on A498 renal, 446 nM; in the assay with MDA-MB-231 breast, 1570 nM; in the assay with CCRF-CEM leukemia, 3.22 µM; in the assay with SN12C renal, 1710 nM; with SF-295 CNS it was 1740 nM. Further, the GI50 in the assay on SR leukemia was 2170 nM; in the assay with NCI-H522 lung, 1810 nM. The TGI with HCT-15 colon was determined as 3.49 µM; in the assay with A498 renal it was 6.92 µM; in the assay on MDA-MB-231 breast it was 2.95 µM; in the assay with CCRF-CEM leukemia, 10.2 µM; with SN12C renal, 3.21 µM; in the assay on SF-295 CNS it was 3.16 µM. The TGI was 5.67 µM in the assay with SR leukemia and 3.98 µM in the assay on NCI-H522 lung.
For `CC=C/C=C/[C@@H]1O[C@](O)([C@H](CC)C(=O)NC/C=C/C=C(\C)[C@@H](OC)[C@@H](C)[C@@H]2O[C@H](/C=C/C=C/C=C(\C)C(=O)c3c(O)cc[nH]c3=O)[C@H](O)[C@@H]2O)[C@H](O)[C@H](O)C1(C)C`, the TGI with HCT-15 colon, in the assay on A498 renal, with RPMI-8226 leukemia, in the assay on OVCAR-8 ovarian, with SF-295 CNS and in the assay on SR leukemia was above 100 µM each time. Also, the TGI in the assay on NCI-H522 lung is above 100 µM.
Take `O=C(Nc1ccc(C(F)(F)F)cc1[N+](=O)[O-])C(=O)Nn1c(=S)[nH]c2ccccc2c1=O`: the TGI with HCT-15 colon, with A498 renal, in the assay with RPMI-8226 leukemia, with OVCAR-8 ovarian, in the assay on CCRF-CEM leukemia and in the assay with SN12C renal was above 100 µM in each case. Besides, the TGI in the assay on SF-295 CNS, in the assay with SR leukemia and in the assay on NCI-H522 lung was above 100 µM throughout.
Turning to `Cc1ccc(S(=O)(=O)NCCCSCCN)cc1`, the TGI in the assay on HCT-15 colon, in the assay with A498 renal, in the assay with MDA-MB-231 breast, in the assay on OVCAR-8 ovarian, in the assay on CCRF-CEM leukemia and with SN12C renal was above 100 µM throughout. Also, the TGI in the assay on SF-295 CNS, with SR leukemia and with NCI-H522 lung was above 100 µM in each case.
As to `Nc1nc(N)c(N=Nc2ccccc2)c(=O)[nH]1`, the TGI in the assay on HCT-15 colon, in the assay with A498 renal, in the assay on RPMI-8226 leukemia, in the assay with OVCAR-8 ovarian, with CCRF-CEM leukemia and in the assay with SN12C renal was above 100 µM throughout. Besides, the TGI in the assay on SF-295 CNS, in the assay with SR leukemia and in the assay on NCI-H522 lung was above 100 µM in each case.
